Measurements as given in patent US20190065668A1, “STRUCTURE OF […] IN COMPLEX WITH AN INHIBITOR AND USES THEREOF” (priority 2015, published 2019).
Counter-ions that a name gives are not always drawn. Like-named read-outs stand apart in the source and are kept apart here.

Legend:
P. vivax plasmepsin V [1] = biological target: T1, P. vivax plasmepsin V (Plasmodium vivax, UniProt A5K302); test: Surface plasmon resonance (Biacore 4000) direct binding; details: SPR; for Kd: 25° C., 1:1 interaction model, read-out: affinity (KD) for P. vivax plasmepsin V; for kd (off-rate): P. vivax plasmepsin V
T1 construct: gp67 signal peptide + FLAG tag + SUMO domain + TEV protease cleavage site (N, cleaved yes); made in house; host or cells: High Five insect cells
T1 sequence (A5K302 33-476, looked up, natural form): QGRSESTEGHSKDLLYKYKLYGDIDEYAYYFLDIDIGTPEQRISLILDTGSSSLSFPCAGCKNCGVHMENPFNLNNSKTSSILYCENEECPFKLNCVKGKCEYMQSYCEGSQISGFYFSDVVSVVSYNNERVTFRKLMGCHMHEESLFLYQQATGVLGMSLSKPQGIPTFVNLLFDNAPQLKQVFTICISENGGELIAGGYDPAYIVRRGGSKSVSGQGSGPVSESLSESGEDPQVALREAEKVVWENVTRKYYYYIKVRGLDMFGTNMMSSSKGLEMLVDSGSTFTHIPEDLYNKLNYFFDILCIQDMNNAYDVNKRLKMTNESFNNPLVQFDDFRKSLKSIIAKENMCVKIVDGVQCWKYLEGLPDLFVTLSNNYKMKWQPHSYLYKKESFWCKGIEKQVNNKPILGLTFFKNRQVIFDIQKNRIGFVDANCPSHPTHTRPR
Description: Surface plasmon resonance was performed using a Biacore 4000 (GE Healthcare). Plasmepsin V was immobilized on a Series S CM5 sensor chip using amine-coupling chemistry. The surfaces of flow cells were activated for 10 min with a 1:1 mixture of 0.1 M NHS (N-hydroxysuccinimide) and 0.1 M EDC (3-(N,N-dimethylamino)propyl-N-ethylcarbodiimide) at a flow rate of […]. […] Compounds were allowed to associate and dissociate for 250 s and 600 s, respectively. Data were collected at a rate of 10 Hz and fit to a 1:1 interaction model using the Biacore 4000 Evaluation Software Version 1.0.

[2] = tested on: export of PfEMP3-GFP to P. falciparum-infected erythrocytes; test: Pulse chase of PfEMP3-GFP processing and export to infected erythrocytes (tetanolysin release); details: for export of PfEMP3-GFP to parasite-infected erythrocytes: 10 μM pre-treatment 3 hr
P. falciparum parasites = test: P. falciparum growth assay, parasitaemia at 72 hr by flow cytometry
[3] = biological target: T2, recombinant P. falciparum plasmepsin V (Plasmodium falciparum, UniProt Q8I6Z5); test: Fluorogenic PEXEL cleavage assay (KAHRP FRET peptide), inhibition of recombinant P. falciparum plasmepsin V; format: biochemical
T2 construct: FLAG tag + SUMO domain + TEV protease cleavage site (secreted via signal peptide) (N, cleaved yes); made in house; host or cells: sf21 insect cells
T2 sequence (Q8I6Z5 80-528): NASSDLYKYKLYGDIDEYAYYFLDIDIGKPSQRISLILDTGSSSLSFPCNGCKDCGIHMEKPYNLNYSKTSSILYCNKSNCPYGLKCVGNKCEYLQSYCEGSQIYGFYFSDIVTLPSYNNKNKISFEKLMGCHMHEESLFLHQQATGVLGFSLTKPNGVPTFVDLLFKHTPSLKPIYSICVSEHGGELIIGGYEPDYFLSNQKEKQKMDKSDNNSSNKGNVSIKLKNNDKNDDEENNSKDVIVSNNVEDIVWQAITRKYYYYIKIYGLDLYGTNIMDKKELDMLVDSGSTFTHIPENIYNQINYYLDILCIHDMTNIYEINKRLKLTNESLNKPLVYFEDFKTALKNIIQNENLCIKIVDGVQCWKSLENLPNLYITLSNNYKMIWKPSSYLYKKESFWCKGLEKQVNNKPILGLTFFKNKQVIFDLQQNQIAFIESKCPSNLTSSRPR
Description: (§1) PEXEL cleavage assays (20 μl total volume) consisted of 1 ng/well of P. vivax plasmepsin V or 1.5 ng/well of P. falciparum plasmepsin V in buffer (25 mM Tris.HCl, 25 mM MES, pH 6.4) with 5 μM FRET peptide substrate (DABCYL-[…]-E-EDANS (SEQ ID NO:7) or peptides with the sequence DABCYL-[…]-E-EDANS (SEQ ID NO:8) or DABCYL-[…]-E-EDANS (SEQ ID NO:9)) (Sleebs, B. E. et al. 2014a; see FIG. 9). Samples were incubated at 37° C. for 120 min and measured using an Envision plate (Perkin-Elmer) reader (Ex 340 nm/Em 490 nm).
Reactions comprised of a fluorescent peptide of nine amino acids containing the PEXEL sequence (RTLAQ) from KAHRP. The KAHRP PEXEL peptide substrate DABCYL-[…]-E-EDANS (SEQ ID NO:7) was obtained commercially and used at a final assay concentration of 7.5 μM.
The end-point for all assays was set within the linear range of activity (approximately 1 hr.).
Tween-20 was used at 0.005% final assay concentration. Final assay buffer concentration was as follows: 25 mM Tris HCl, 25 mM MES (pH 6.4). Final assay volume was 20 μL.
An 11-point 1/3 serial dilution of compounds was generated using DMSO as a diluent (final assay concentration of 1%).
Assay reaction was incubated for 60 min at 37° C. and read using a fluorescence plate reader (Ex 340 nm, Em 495 nm). […]

[4] = tested on: plasmepsin V cleavage of the PEXEL in PfEMP3-GFP; test: PfEMP3-GFP PEXEL processing in P. falciparum trophozoites (immunoblot / 35S radiolabelling and immunoprecipitation); format: cell-based, Plasmodium falciparum
Excerpt: P. falciparum 3D7 expressing the PEXEL protein erythrocyte membrane protein 3 (PfEMP3) fused to green fluorescent protein (GFP) (PfEMP3-GFP) was generated previously (Boddey, J. A. et al, 2010) (see FIG. 2C).
Membranes were probed with mouse a-GFP (Roche; 1:1000), rabbit a-Aldolase (1:1000) or rabbit a-HSP70 (1:4000) antibodies followed by horseradish peroxidase-conjugated secondary antibodies (Silenius; 1:2000) and visualized using enhanced chemiluminescence (Amersham). To radiolabel P. falciparum proteins, magnet-purified trophozoites expressing PfEMP3-GFP were treated with 10 μM inhibitors for 3 hr. […] PfEMP3-GFP protein species were then immunoprecipitated from parasite lysates solubilized in 1% Triton X-100/PBS containing 1× complete protease inhibitors (Roche) using anti-GFP agarose (MBL) for 2 hours at 4° C. and proteins were resolved by SDS-PAGE, visualized by autoradiography and quantified using a GS-800 Calibrated Densitometer (Bio-Rad) (Sleebs, B. E. et al. 2014a).

[5] = tested on: plasmepsin V cleavage of the PEXEL in PfEMP3-GFP; details: PfEMP3-GFP processing; from Sleebs, B. E. et al. 2014; cited from earlier work
P. vivax plasmepsin V [6] = biological target: T1, P. vivax plasmepsin V; test: Fluorogenic PEXEL cleavage assay (KAHRP FRET peptide), inhibition of recombinant P. vivax plasmepsin V; format: biochemical; details: KAHRP fluorogenic substrate 7.5 μM, 60 min, 37° C., pH 6.4
P. vivax plasmepsin V [7] = biological target: T1, P. vivax plasmepsin V; test: Kinetic characterisation of recombinant plasmepsin V (Michaelis-Menten / Lineweaver-Burk), P. vivax enzyme; format: biochemical; details: fluorogenic PEXEL substrate from KAHRP
Description: (§2) The in vitro activity of recombinant P. falciparum and P. vivax plasmepsin V was assessed against a fluorogenic peptide of nine amino acids that contained the PEXEL sequence from knob-associated histidine-rich protein (“KAHRP”) (DABCYL-[…]-E-EDANS; SEQ ID NO: 7).
(§3) Values for Km were derived from both the inverse Michaelis-Menten and the Lineweaver-Burk plots. These values were of the same magnitude for each enzyme and are also similar to the Km derived from the activity of another recombinant form of P. falciparum plasmepsin V on a different PEXEL substrate (Xiao, H. et al. 2014).
as §1

[8] = biological target: T2, recombinant P. falciparum plasmepsin V; test: Kinetic characterisation of recombinant plasmepsin V (Michaelis-Menten / Lineweaver-Burk), P. falciparum enzyme; format: biochemical; details: fluorogenic PEXEL substrate from KAHRP
Description: as §2, §3, §1

[9] = read-out: EC50, inhibition of growth of P. falciparum (3D7) parasites, 3D7, chloroquine-sensitive strain, 72 hr

Molecule	Kd (P. vivax plasmepsin V [1]) [nM]	kd (off-rate) (P. vivax plasmepsin V [1])	reversibility of inhibition of PEXEL cleavage after removal of inhibitor ([2]; 10 μM 3 hr, then inhibitor-free medium 30 and 60 min)	export of PfEMP3-GFP to parasite-infected erythrocytes ([2]; chase 20, 40 and 60 min)	export of PfEMP3-GFP to parasite-infected erythrocytes ([2]; chase 120 min)	EC50 (P. falciparum parasites; [9]) [nM]	EC50 (P. falciparum parasites; read-out: EC50, inhibition of growth of P. falciparum CS2, CS2, 72 hr) [nM]	EC50 (P. falciparum parasites; read-out: EC50, inhibition of growth of P. falciparum NF54, NF54, 72 hr) [nM]	EC50 (P. falciparum parasites; read-out: EC50, inhibition of growth of P. falciparum W2mef, W2mef (chloroquine-resistant), 72 hr) [nM]	increased potency against recombinant P. falciparum plasmepsin V compared to WEHI-916 ([3]; ratio of IC50 values) [fold]	inhibition of plasmepsin V cleavage of PfEMP3-GFP ([4]; 10 μM, 3 hours, immunoblot)	time required for optimal inhibition of plasmepsin V in parasites ([4]; PfEMP3-GFP processing) [h]	degree of PEXEL processing inhibition compared to WEHI-916 ([4]; PfEMP3-GFP, immunoblot) [fold]	inhibition of PEXEL cleavage (accumulation of 35 kDa full-length PfEMP3-GFP) ([4]; parasites expressing PfEMP3-GFP, immunoblot)	time required for optimal inhibition of plasmepsin V in parasites [5] [h]	EC50 (P. falciparum parasites; read-out: EC50, blocking P. falciparum growth, summary statement, strain not stated) [nM]	IC50 ([3]; KAHRP fluorogenic substrate 7.5 μM, 60 min, 37° C., pH 6.4, read-out: IC50 against recombinant P. falciparum plasmepsin V) [nM]	IC50 (P. vivax plasmepsin V [6]) [nM]	Km (P. vivax plasmepsin V [7]) [µM]	Km [8] [µM]
CC(C)C[C@H](NC(=O)[C@@H](NC(=O)[C@H](CCON=C(N)N)NC(=O)OCc1ccccc1)C(C)C)[C@@H](O)CC(=O)NCCc1ccccc1 [WEHI-842, Cbz-Cav(NH2)—Val-Sta-NH(CH2)2Ph.TFA]	13.4	1.11 E-03 1/s	reversible	dramatically reduced export	Efficient export of PfEMP3-GFP returned	400	830	470	640	15	potently inhibited plasmepsin V cleavage of PfEMP3-GFP	3	10	efficiently inhibited PEXEL cleavage						
CC(C)C[C@H](NC(=O)[C@@H](NC(=O)[C@H](CCCNC(=N)N)NS(=O)(=O)Cc1ccccc1)C(C)C)[C@@H](O)CC(=O)NCCc1ccccc1 [WEHI-916, reference compound]	42	2.47 E-03 1/s				5000									5	5000	12.9	8.2		
DABCYL-RNKRTLAQKQ-E-EDANS [fluorogenic PEXEL substrate from KAHRP]																			6	20.2
